Measurements: patent publication US11970511B2, “Tetrahydropyran-based thiodisaccharide mimics as Galectin-3 inhibitors” (BRISTOL-MYERS SQUIBB COMPANY, priority 2018, dated 2024)

Target: His-tagged recombinant human Gal-3 (hGal-3) (Homo sapiens, UniProt P17931)
Test: Gal-3 HTRF assay: His-tagged hGal-3 binding to B-ASF, Anti-His terbium antibody / Streptavidin d2 detection;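 also: compound preincubated 30 min with hGal-3, then 1 h with B-ASF, DMSO wells with B-ASF serving as positive control and those lacking B-ASF as negative control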
Settings: 15 nM hGal-3, 15 nM B-ASF, three replicates, room temperature

Chain of His-tagged recombinant human Gal-3 (hGal-3) (P17931 whole entry): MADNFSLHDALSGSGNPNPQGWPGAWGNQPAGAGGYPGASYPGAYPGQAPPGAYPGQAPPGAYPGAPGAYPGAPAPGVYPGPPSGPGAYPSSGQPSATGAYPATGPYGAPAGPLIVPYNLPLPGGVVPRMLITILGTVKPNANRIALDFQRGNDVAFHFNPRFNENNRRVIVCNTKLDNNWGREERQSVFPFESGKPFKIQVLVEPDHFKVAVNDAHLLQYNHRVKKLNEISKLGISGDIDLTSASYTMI

Compound | IC50 [µM]
COc1ncc(-c2cn([C@H]3COC[C@@H](S[C@@H]4O[C@H](CO)[C@H](O)[C@H](n5cc(-c6cc(F)c(F)c(F)c6)nn5)[C@H]4OCC(=O)N4CCC4)[C@@H]3O)nn2)cn1 [Example 35, 1-(azetidin-1-yl)-2-(((2S,3R,4S,5R,6R)-5-hydroxy-2-(((3R,4R,5S)-4-hydroxy-5-(4-(2-methoxypyrimidin-5-yl)-1H-1,2,3-triazol-1-yl)tetrahydro-2H-pyran-3-yl)thio)-6-(hydroxymethyl)-4-(4-(3,4,5-trifluorophenyl)-1H-1,2,3-triazol-1-yl)tetrahydro-2H-pyran-3-yl)oxy)ethan-1-one] | 0.032
COC1C(SC2CN(C(C)=O)CC(n3cc(-c4cccc(F)c4)nn3)C2O)OC(CO)C(O)C1n1cc(-c2cc(F)c(F)c(F)c2)nn1 (centres unmarked) [Example B2] | 0.037
COC(=O)C12CCC(c3cn(C4C(O)C(CO)OC(SC5COCC(n6cc(-c7ccccc7)nn6)C5O)C4OC)nn3)(CC1)CC2 [Example A11, methyl 4-(1-((2R,3R,4S,5R,6S)-3-hydroxy-6-(((3R,4R,5S)-4-hydroxy-5-(4-phenyl-1H)-1,2,3-triazol-1-yl)tetrahydro-2H-pyran-3-yl)thio)-2-(hydroxymethyl)-5-methoxytetrahydro-2H-pyran-4-yl)-1H-1,2,3-triazol-4-yl)bicyclo[2.2.2]octane-1-carboxylate] | 1.86
CO[C@@H]1[C@@H](n2cc(-c3cncs3)nn2)[C@@H](O)[C@@H](CO)O[C@H]1S[C@@H]1COC[C@H](n2cc(-c3ccccc3)nn2)[C@H]1O [Example A7, (2R,3R,4S,5R,6S)-6-(((3R,4R,5S)-4-hydroxy-5-(4-phenyl-1H-1,2,3-triazol-1-yl)tetrahydro-2H-pyran-3-yl)thio)-2-(hydroxymethyl)-5-methoxy-4-(4-(thiazol-5-yl)-1H-1,2,3-triazol-1-yl)tetrahydro-2H-pyran-3-ol] | 0.84
COc1cnc(-c2cn([C@H]3COC[C@@H](S[C@@H]4O[C@H](CO)[C@H](O)[C@H](n5cc(-c6cc(F)c(F)c(F)c6)nn5)[C@H]4OC)[C@@H]3O)nn2)nc1N [Example 21, (2R,3R,4S,5R,6S)-6-(((3R,4R,5S)-5-(4-(4-amino-5-methoxypyrimidin-2-yl)-1H-1,2,3-triazol-1-yl)-4-hydroxytetrahydro-2H-pyran-3-yl)thio)-2-(hydroxymethyl)-5-methoxy-4-(4-(3,4,5-trifluorophenyl)-1H-1,2,3-triazol-1-yl)tetrahydro-2H-pyran-3-ol] | 0.023
CO[C@@H]1[C@@H](NC(=O)c2cc(F)c(F)c(F)c2)[C@@H](O)[C@@H](CO)O[C@H]1S[C@@H]1COC[C@H](n2cc(-c3ccccc3)nn2)[C@H]1O [Example A12, 3,4,5-trifluoro-N-((2R,3R,4S,5R,6S)-3-hydroxy-6-(((3R,4R,5S)-4-hydroxy-5-(4-phenyl-1H-1,2,3-triazol-1-yl)tetrahydro-2H-pyran-3-yl)thio)-2-(hydroxymethyl)-5-methoxytetrahydro-2H-pyran-4-yl)benzamide] | 1.4
CO[C@@H]1[C@@H](n2cc(-c3ccc4nccnc4c3)nn2)[C@@H](O)[C@@H](CO)O[C@H]1S[C@@H]1COC[C@H](n2cc(-c3ccccc3)nn2)[C@H]1O [Example A8, (2R,3R,4S,5R,6S)-6-(((3R,4R,5S)-4-hydroxy-5-(4-phenyl-1H-1,2,3-triazol-1-yl)tetrahydro-2H-pyran-3-yl)thio)-2-(hydroxymethyl)-5-methoxy-4-(4-(quinoxalin-6-yl)-1H-1,2,3-triazol-1-yl)tetrahydro-2H-pyran-3-ol] | 0.17
CC(=O)N1C[C@@H](S[C@@H]2O[C@H](CO)[C@H](O)[C@H](n3cc(-c4cc(F)c(F)c(F)c4)nn3)[C@H]2OCC(=O)O)[C@H](O)[C@@H](n2cc(-c3cccc(F)c3)nn2)C1 [Example B4, 2-(((2S,3R,4S,5R,6R)-2-(((3R,4R,5S)-1-acetyl-5-(4-(3-fluorophenyl)-1H-1,2,3-triazol-1-yl)-4-hydroxypiperidin-3-yl)thio)-5-hydroxy-6-(hydroxymethyl)-4-(4-(3,4,5-trifluorophenyl)-1H-1,2,3-triazol-1-yl)tetrahydro-2H-pyran-3-yl)oxy)acetic acid] | 0.032
COC1C(SC2CN(C(C)=O)CC(n3cc(-c4cccc(F)c4)nn3)C2O)OC(CO)C(O)C1n1cc(-c2cccc(F)c2)nn1 [Example B3, 1-((3S,4R,5R)-3-(4-(3-fluorophenyl)-1H-1,2,3-triazol-1-yl)-5-(((2S,3R,4S,5R,6R)-4-(4-(3-fluorophenyl)-1H-1,2,3-triazol-1-yl)-5-hydroxy-6-(hydroxymethyl)-3-methoxytetrahydro-2H-pyran-2-yl)thio)-4-hydroxypipeddin-1-yl)ethan-1-one] | 0.054
COC(=O)COC1C(SC2COCC(n3cc(-c4cncnc4)nn3)C2O)OC(CO)C(O)C1n1cc(-c2cc(F)c(F)c(F)c2)nn1 [Example 27, methyl 2-(((2S,3R,4S,5R,6R)-5-hydroxy-2-(((3R,4R,5S)-4-hydroxy-5-(4-(pyriin-5-yl)-1H-1,2,3-triazol-1-yl)tetrahydro-2H-pyran-3-yl)thio)-6-(hydroxymethyl)-4-(4-(3,4,5-trifluorophenyl)-1H-1,2,3-triazol-1-yl)tetrahydro-2H-pyran-3-yl)oxy)acetate] | 0.017
CO[C@@H]1[C@@H](n2cc(-c3ccc4ccccc4c3)nn2)[C@@H](O)[C@@H](CO)O[C@H]1S[C@@H]1COC[C@H](n2cc(-c3ccccc3)nn2)[C@H]1O [Example A10, (2R,3R,4S,5R,6S)-6-(((3R,4R,5S)-4-hydroxy-5-(4-phenyl-1H-1,2,3-triazol-1-yl)tetrahydro-2H-pyran-3-yl)thio)-2-(hydroxymethyl)-5-methoxy-4-(4-(naphthalen-2-yl)-1H-1,2,3-triazol-1-yl)tetrahydro-2H-pyran-3-ol] | 0.33
CO[C@@H]1[C@@H](n2cc(-c3cccnc3)nn2)[C@@H](O)[C@@H](CO)O[C@H]1S[C@@H]1COC[C@H](n2cc(-c3ccccc3)nn2)[C@H]1O [Example A1, (2R,3R,4S,5R,6S)-6-(((3R,4R,5S)-4-hydroxy-5-(4-phenyl-1H-1,2,3-triazol-1-yl)tetrahydro-2H-pyran-3-yl)thio)-2-(hydroxymethyl)-5-methoxy-4-(4-(pyridin-3-yl)-1H-1,2,3-triazol-1-yl)tetrahydro-2H-pyran-3-ol] | 1.1
CO[C@@H]1[C@@H](n2cc(-c3ccncc3)nn2)[C@@H](O)[C@@H](CO)O[C@H]1S[C@@H]1COC[C@H](n2cc(-c3ccccc3)nn2)[C@H]1O [Example A2, (2R,3R,4S,5R,6S)-6-(((3R,4R,5S)-4-hydroxy-5-(4-phenyl-1H-1,2,3-triazol-1-yl)tetrahydro-2H-pyran-3-yl)thio)-2-(hydroxymethyl)-5-methoxy-4-(4-(pyridin-4-yl)-1H-1,2,3-triazol-1-yl)tetrahydro-2H-pyran-3-ol] | 1.1
COc1ncc(-c2cn(C3COCC(SC4OC(CO)C(O)C(n5cc(-c6cc(F)c(F)c(F)c6)nn5)C4OCC(=O)N4CC(C)OC(C)C4)C3O)nn2)cn1 (single isomer, unassigned) [Example 32] | 0.019
COc1ncc(-c2cn([C@H]3COC[C@@H](S[C@@H]4O[C@H](CO)[C@H](O)[C@H](n5cc(-c6cc(F)c(F)c(F)c6)nn5)[C@H]4OCC(=O)N4CCOCC4)[C@@H]3O)nn2)cn1 [Example 31, 2-(((2S,3R,4S,5R,6R)-5-hydroxy-2-(((3R,4R,5S)-4-hydroxy-5-(4-(2-methoxypyrimidin-5-yl)-1H-1,2,3-triazol-1-yl)tetrahydro-2H-pyran-3-yl)thio)-6-(hydroxymethyl)-4-(4-(3,4,5-trifluorophenyl)-1H-1,2,3-triazol-1-yl)tetrahydro-2H-pyran-3-yl)oxy)-1-morpholinoethan-1-one] | 0.013
CO[C@@H]1[C@@H](n2cc(-c3ccc(-c4ccccc4)cc3)nn2)[C@@H](O)[C@@H](CO)O[C@H]1S[C@@H]1COC[C@H](n2cc(-c3ccccc3)nn2)[C@H]1O [Example A3, (2R,3R,4S,5R,6S)-4-(4-([1,1′-biphenyl]-4-yl)-1H-1,2,3-triazol-1-yl)-6-(((3R,4R,5S)-4-hydroxy-5-(4-phenyl-1H-1,2,3-triazol-1-yl)tetrahydro-2H-pyran-3-yl)thio)-2-(hydroxymethyl)-5-methoxytetrahydro-2H-pyran-3-ol] | 11
CO[C@@H]1[C@@H](n2cc(-c3cncnc3)nn2)[C@@H](O)[C@@H](CO)O[C@H]1S[C@@H]1COC[C@H](n2cc(-c3ccccc3)nn2)[C@H]1O [Example A6, (2R,3R,4S,5R,6S)-6-(((3R,4R,5S)-4-hydroxy-5-(4-phenyl-1H-1,2,3-triazol-1-yl)tetrahydro-2H-pyran-3-yl)thio)-2-(hydroxymethyl)-5-methoxy-4-(4-(pyrimidin-5-yl)-1H-1,2,3-triazol-1-yl)tetrahydro-2H-pyran-3-ol] | 0.36
CO[C@@H]1[C@@H](n2cc(-c3ccnnc3)nn2)[C@@H](O)[C@@H](CO)O[C@H]1S[C@@H]1COC[C@H](n2cc(-c3ccccc3)nn2)[C@H]1O [Example A9, (2R,3R,4S,5R,6S)-6-(((3R,4R,5S)-4-hydroxy-5-(4-phenyl-1H-1,2,3-triazol-1-yl)tetrahydro-2H-pyran-3-yl)thio)-2-(hydroxymethyl)-5-methoxy-4-(4-(pyridazin-4-yl)-1H-1,2,3-triazol-1-yl)tetrahydro-2H-pyran-3-ol] | 1.24
CO[C@@H]1[C@@H](n2cc(-c3cccc(F)c3)nn2)[C@@H](O)[C@@H](CO)O[C@H]1S[C@@H]1COC[C@H](n2cc(-c3ccccc3)nn2)[C@H]1O [Example A4, (2R,3R,4S,5R,6S)-4-(4-(3-fluorophenyl)-1H-1,2,3-triazol-1-yl)-6-(((3R,4R,5S)-4-hydroxy-5-(4-phenyl-1H-1,2,3-triazol-1-yl)tetrahydro-2H-pyran-3-yl)thio)-2-(hydroxymethyl)-5-methoxytetrahydro-2H-pyran-3-ol] | 0.026
COC1C(SC2CNCC(n3cc(-c4cccc(F)c4)nn3)C2O)OC(CO)C(O)C1n1cc(-c2cc(F)c(F)c(F)c2)nn1 (centres unmarked) [Example B1] | 0.067
